# Measurements as given in patent publication US20240269150A1, “WOUND TREATMENT COMPOSITION” (CS MEDICA A/S, priority 2021, published 2024).
# Test: Comparison of compositions formulated with different crystalline CBDs
# Type: in vivo
# Conditions: compositions per Example 1 (formulation A or B) differing only in the crystalline CBD used
# Excerpt: In some embodiments, CBD of crystal structure A (or capable of forming needle-like crystals) is at least 1.2, 1.5, 2, 3, 4, 5, 7.5, 10, 15 or 20 times more “potent” on a weight/weight basis than CBD of crystal structure B (or capable of forming cluster/bunch-like crystals). Often, the “A-type” CBD is at least 2.5, 5, 7.5, or 10 times more “potent” on a weight/weight basis than “B-type” CBD. The “potency” of “type A” CBD can e.g. be determined in measuring the time needed for wound and/or soar healing using essentially identical compositions with the exception of the type of CBD used. Alternatively, the potency can be determined in the quantity of CBD needed to provide the same effect, such as wound and/or sore healing time.
# Two compositions are prepared according to Example 1, e.g. formulation A or B, the only difference being that the crystalline CBD used in the formulation is either of type A (needle-like crystals; FIG. 1) or type B (bunch/cluster-like; FIG. 2).
# Type A crystalline CBD is sourced from Enecta, while type B CBD is sourced from Pharma Hemp.
smiles,measurement,setting,value
"C=C(C)[C@@H]1CCC(C)=C[C@H]1c1c(O)cc(CCCCC)cc1O [type A CBD, cannabidiol]",Activity / potency of type A CBD relative to type B CBD,,significantly more active than type B CBD
same,Activity / potency of type A CBD relative to type B CBD,listed as CBD with a needle-like crystal structure,significantly more potent
